Where a SMILES comes first, the peptide text is derived from it. Where no end group is shown, it is not given here. The star is where a group is joined. PEG 22kD = 22 kDa polyethylene glycol (on cysteine); Palmitoyl = CCCCCCCCCCCCCCCC(=O)*

The target of assay [1] is T1, GLP-1 receptor (Rattus norvegicus, UniProt P32301).
T1 construct: endogenous in cells; host or cells: RINm5F cells
T1 sequence (P32301 22-463): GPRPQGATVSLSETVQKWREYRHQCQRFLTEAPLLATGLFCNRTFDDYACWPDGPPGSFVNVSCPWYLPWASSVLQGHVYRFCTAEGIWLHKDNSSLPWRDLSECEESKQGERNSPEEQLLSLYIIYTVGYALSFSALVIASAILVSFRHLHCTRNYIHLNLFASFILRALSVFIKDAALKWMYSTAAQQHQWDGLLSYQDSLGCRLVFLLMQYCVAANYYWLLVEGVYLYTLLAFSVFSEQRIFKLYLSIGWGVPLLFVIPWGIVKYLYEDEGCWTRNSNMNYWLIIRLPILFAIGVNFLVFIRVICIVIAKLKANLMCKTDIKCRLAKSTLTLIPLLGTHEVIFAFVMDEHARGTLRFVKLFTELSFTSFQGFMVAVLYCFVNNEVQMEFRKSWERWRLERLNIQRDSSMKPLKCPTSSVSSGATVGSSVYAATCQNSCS
As to the kind of experiment: Peptide signaling through GLP-1 receptor, cAMP scintillation proximity assay in RINm5F cells. The class given is cell-based. The note with it: for GLP1 Relative Potency: EC50 of native GLP-1 (7-36) divided by EC50 of polypeptide x 100, cAMP in RINm5F cells; for Emax: RIN-m5F, read-out: % GLP1 max; for % GLP1 max: maximal cAMP activity relative to native GLP-1 (7-36), RINm5F cells. The protocol:
The media was removed and the cells were washed twice with PBS. […] For assay of peptides conjugated with fatty acid, the BSA was omitted from the incubation buffer. The incubation buffer was removed, and the cells were lysed in the lysis reagent provided with the cAMP Scintillation Proximity Assay (SPA) direct screening assay system (Amersham Pharmacia Biotech Inc, Piscataway, N.J.). The amount of cAMP (in pmol) present in the lysates was determined following instructions provided with this kit.
The amount of cAMP (in pmol) produced at each concentration of peptide was plotted and analyzed by nonlinear regression using Prizm software to determine the EC50 for each peptide.

Another assay concerns the target T2, glucagon receptor (Rattus norvegicus, UniProt P30082).
T2 construct: glucagon receptor present in the plasma membranes isolated from rat liver; from tissue; host or cells: rat liver plasma membranes
The experiment in a line: Competitive binding of peptide to the glucagon receptor in rat liver plasma membranes (125I glucagon). The protocol:
The wet weight of the livers was determined and the tissue minced in 5 volumes of ice cold TES buffer and a slurry prepared using a polytron. All buffers and spins were kept at 4° C. The slurry was further homogenized using three strokes of a handheld dounce homogenizer. The homogenate was passed through several layers of cheesecloth and spun at 25,000×g for 10 minutes. Pellets were homogenized in 22.1 ml TES buffer using 10 strokes of a handheld dounce homogenizer. Twenty-seven point nine milliliters of 2.4 M sucrose in TE was added and mixed well. The homogenate was distributed among several tubes, and each tube was overlaid with 7 ml of TES buffer. The tubes were spun at 120,000×g for 60 minutes. The plasma membranes were removed from the interface that formed during the spin, diluted in TES and concentrated using a 15 minute spin at 200,000×g. The resulting pellet was again homogenized in 9.8 ml TES buffer, combined with 10.3 ml 2.4M sucrose, overlaid with 7 ml TES, and centrifuged at 180,000×g for 30 min. […] The final pellet was resuspended in TES. Plasma membranes were stored at −80° C. until ready for use.
Competitive binding of some polypeptides of the invention to rat liver plasma membranes was measured as follows. Ninety-six-well GF/C filtration plates (Millipore, Bedford, Mass.) were blocked with 0.1% PEI for at least one hour and washed twice with binding buffer consisting of 20 mM Tris, 2 mM EDTA, pH 7.5, 1 mg/ml BSA, and 1 mg/ml bacitracin. […] The plates were dried, scintillant was added to each well, and cpm per well determined using a Wallac Microbeta counter.

Assay [2] concerns the target T1, GLP-1 receptor. As to the kind of experiment: Competitive binding of peptide to the GLP-1 receptor in RINm5F cell plasma membranes (125I GLP-1). The note with it: read-out: GLP1 RIN IC50. The protocol: Flasks of RINm5F cells were washed with PBS, scraped in 20 mM Hepes-1 mM EDTA-250 mM sucrose buffer containing protease inhibitors (HES) and homogenized in a dounce homogenizer followed by repeated resuspension through a 23 gauge needle. Unbroken cells and nuclei were removed by centrifugation at 500×g for 5 minutes. The pellet was resuspended in HES buffer using a 23 gauge needle and the centrifugation was repeated. The supernatants from the two spins were combined and centrifuged at 40,000×g for 20 min. The resulting plasma membrane pellet was resuspended in HES buffer using a 23 gauge needle followed by a 25 gauge needle. Membranes were stored at −80° C. until use.
Competitive binding of some polypeptides of the invention to RINm5F cell plasma membranes was measured as follows. Ninety-six-well GF/C filtration plates (Millipore, Bedford, Mass.) were blocked with 0.3% PEI for at least one hour and washed twice with binding buffer consisting of 20 mM Tris, 2 mM EDTA, pH 7.5, 1 mg/ml BSA, and 1 mg/ml bacitracin. […] The plates were dried, scintillant was added to each well, and cpm per well determined using a Wallac Microbeta counter.

Assay [3] can be described thus: Intraperitoneal glucose tolerance testing (IPGTT) in rats or mice. The class given is in vivo. The note with it: ipGTT in mice 3 hours post dosing with 100 μg/kg peptide. The protocol:
Blood glucose levels during intraperitoneal glucose tolerance testing in rats or mice by some polypeptides of the invention were measured as follows. The in vivo activity of the polypeptides of the invention when administered subcutaneously was examined in rats or mice. Rats or mice fasted overnight were given a subcutaneous injection of control or peptide (100 μg/kg). Basal blood glucose was measured prior to administration of peptides or three or 17 hours after administration of derivatized peptides, and the rats or mice were given 2 g/kg of glucose intraperitoneally. Blood glucose was measured again after 15, 30 and 60 minutes in rats or 30 and 60 minutes in mice.

T2 sequence (P30082 27-485): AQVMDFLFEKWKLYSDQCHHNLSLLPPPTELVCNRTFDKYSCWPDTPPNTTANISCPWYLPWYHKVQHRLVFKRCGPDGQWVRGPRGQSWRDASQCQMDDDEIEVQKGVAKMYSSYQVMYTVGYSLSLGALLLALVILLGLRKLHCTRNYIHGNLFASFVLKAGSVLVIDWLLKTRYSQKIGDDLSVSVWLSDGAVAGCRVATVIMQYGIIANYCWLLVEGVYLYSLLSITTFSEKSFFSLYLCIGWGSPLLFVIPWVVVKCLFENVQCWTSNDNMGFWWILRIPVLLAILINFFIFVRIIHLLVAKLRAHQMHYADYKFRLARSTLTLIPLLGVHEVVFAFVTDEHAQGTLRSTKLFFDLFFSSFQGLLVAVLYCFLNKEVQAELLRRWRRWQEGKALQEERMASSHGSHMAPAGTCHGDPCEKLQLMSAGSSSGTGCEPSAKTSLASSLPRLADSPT

As usually defined, the IC50 is the point on the concentration scale where inhibition reaches its midpoint. Turning to `CCCCCCCCCCCCCCCC(=O)NCCCC[C@H](NC(=O)[C@H](C)NC(=O)[C@H](CCCNC(=N)N)NC(=O)[C@H](CCCNC(=N)N)NC(=O)[C@H](C)NC(=O)[C@H](CC(=O)O)NC(=O)[C@H](CC(C)C)NC(=O)[C@H](Cc1ccc(O)cc1)NC(=O)[C@H](CCCCN)NC(=O)[C@H](C)NC(=O)[C@H](Cc1ccc(O)cc1)NC(=O)[C@H](CC(=O)O)NC(=O)[C@H](CO)NC(=O)[C@@H](NC(=O)[C@H](Cc1ccccc1)NC(=O)[C@@H](NC(=O)CNC(=O)[C@H](CCC(N)=O)NC(=O)[C@H](CO)NC(=O)[C@@H](N)Cc1c[nH]cn1)[C@@H](C)O)[C@@H](C)O)C(=O)N[C@@H](CCC(=O)O)C(=O)N[C@@H](Cc1ccccc1)C(=O)N[C@H](C(=O)N[C@@H](C)C(=O)N[C@@H](Cc1c[nH]c2ccccc12)C(=O)N[C@@H](CC(C)C)C(=O)N[C@H](C(=O)N[C@@H](CCCCN)C(=O)NCC(=O)N[C@@H](CCCNC(=N)N)C(N)=O)C(C)C)[C@@H](C)CC` [G87] (H-HSQGTFTSDYAKYLDARRAK(Palmitoyl)EFIAWLVKGR-NH2; N-terminus assumed), at GLP-1 receptor [1], the “GLP1 Relative Potency” value stood at 6.1% and the Emax is 100%. Besides, at glucagon receptor, the IC50 was 620 nM. Besides, the IC50 on GLP-1 receptor [2] came out at 98.6 nM. Moreover, the “In vivo Decrease IpGTT AUC” value in assay [3] is 13%.

As to `CCCCCCCCCCCCCCCC(=O)NCCCC[C@H](NC(=O)[C@H](CCCNC(=N)N)NC(=O)CNC(=O)[C@H](CCCCN)NC(=O)[C@@H](NC(=O)[C@H](CC(C)C)NC(=O)[C@H](Cc1c[nH]c2ccccc12)NC(=O)[C@H](C)NC(=O)[C@@H](NC(=O)[C@H](Cc1ccccc1)NC(=O)[C@H](CCC(=O)O)NC(=O)[C@H](CCCCN)NC(=O)[C@H](C)NC(=O)[C@H](CCCNC(=N)N)NC(=O)[C@H](CCCNC(=N)N)NC(=O)[C@H](C)NC(=O)[C@H](CC(=O)O)NC(=O)[C@H](CC(C)C)NC(=O)[C@H](Cc1ccc(O)cc1)NC(=O)[C@H](CCCCN)NC(=O)[C@H](C)NC(=O)[C@H](Cc1ccc(O)cc1)NC(=O)[C@H](CC(=O)O)NC(=O)[C@H](CO)NC(=O)[C@@H](NC(=O)[C@H](Cc1ccccc1)NC(=O)[C@@H](NC(=O)CNC(=O)[C@H](CCC(N)=O)NC(=O)[C@H](CO)NC(=O)[C@@H](N)Cc1c[nH]cn1)[C@@H](C)O)[C@@H](C)O)[C@@H](C)CC)C(C)C)C(=O)O` [G88] (H-HSQGTFTSDYAKYLDARRAKEFIAWLVKGRK(Palmitoyl)-OH; N-terminus and C-terminus assumed), at GLP-1 receptor [1], the “GLP1 Relative Potency” value was found to be 2.3% and the Emax is 118%. At glucagon receptor, the concentration for half-maximal inhibition (IC50) worked out at 350 nM. For the same molecule, at GLP-1 receptor [2], the IC50 was determined as 109 nM. Besides, in assay [3], the “In vivo Decrease IpGTT AUC” value worked out at 16%.

Regarding `CCCCCCCCCCCCCCCC(=O)NCCCC[C@H](NC(=O)[C@@H](NC(=O)[C@H](Cc1ccccc1)NC(=O)[C@H](CCC(=O)O)NC(=O)[C@H](CCCNC(=N)N)NC(=O)[C@H](C)NC(=O)[C@H](CCCNC(=N)N)NC(=O)[C@H](CCCNC(=N)N)NC(=O)[C@H](C)NC(=O)[C@H](CC(=O)O)NC(=O)[C@H](CC(C)C)NC(=O)[C@H](Cc1ccc(O)cc1)NC(=O)[C@H](CCCNC(=N)N)NC(=O)[C@H](C)NC(=O)[C@H](Cc1ccc(O)cc1)NC(=O)[C@H](CC(=O)O)NC(=O)[C@H](CO)NC(=O)[C@@H](NC(=O)[C@H](Cc1ccccc1)NC(=O)[C@@H](NC(=O)CNC(=O)[C@H](CCC(N)=O)NC(=O)[C@H](CO)NC(=O)[C@@H](N)Cc1c[nH]cn1)[C@@H](C)O)[C@@H](C)O)[C@@H](C)CC)C(=O)N[C@@H](Cc1c[nH]c2ccccc12)C(=O)N[C@@H](CC(C)C)C(=O)N[C@H](C(=O)N[C@@H](CCCNC(=N)N)C(=O)NCC(=O)N[C@@H](CCCNC(=N)N)C(=O)NCC(=O)O)C(C)C` [G90], at GLP-1 receptor [1], the “GLP1 Relative Potency” value is given as 0.8% and the Emax came out at 83.5%. Besides, on glucagon receptor, the IC50 stood at 726 nM. The concentration for half-maximal inhibition (IC50) on GLP-1 receptor [2] stood at 25.4 nM. Also, the “In vivo Decrease IpGTT AUC” value in assay [3] was found to be 13%.

In the case of `CCCCCCCCCCCCCCCC(=O)NCCCC[C@H](NC(=O)CNC(=O)[C@H](CCCNC(=N)N)NC(=O)CNC(=O)[C@H](CCCNC(=N)N)NC(=O)[C@@H](NC(=O)[C@H](CC(C)C)NC(=O)[C@H](Cc1c[nH]c2ccccc12)NC(=O)[C@H](CCCCN)NC(=O)[C@@H](NC(=O)[C@H](Cc1ccccc1)NC(=O)[C@H](CCC(=O)O)NC(=O)[C@H](CCCNC(=N)N)NC(=O)[C@H](C)NC(=O)[C@H](CCCNC(=N)N)NC(=O)[C@H](CCCNC(=N)N)NC(=O)[C@H](C)NC(=O)[C@H](CC(=O)O)NC(=O)[C@H](CC(C)C)NC(=O)[C@H](Cc1ccc(O)cc1)NC(=O)[C@H](CCCNC(=N)N)NC(=O)[C@H](C)NC(=O)[C@H](Cc1ccc(O)cc1)NC(=O)[C@H](CC(=O)O)NC(=O)[C@H](CO)NC(=O)[C@@H](NC(=O)[C@H](Cc1ccccc1)NC(=O)[C@@H](NC(=O)CNC(=O)[C@H](CCC(N)=O)NC(=O)[C@H](CO)NC(=O)[C@@H](N)Cc1c[nH]cn1)[C@@H](C)O)[C@@H](C)O)[C@@H](C)CC)C(C)C)C(=O)O` [G182] (H-HSQGTFTSDYARYLDARRAREFIKWLVRGRGK(Palmitoyl)-OH; N-terminus and C-terminus assumed), on GLP-1 receptor [1], the “GLP1 Relative Potency” value came to 1.4% and the Emax amounted to 104%. The molecule further returned an IC50 on glucagon receptor of 220 nM. Moreover, the half-maximal inhibitory concentration (IC50) at GLP-1 receptor [2] turned out to be 12.6 nM. Further, the “In vivo Decrease IpGTT AUC” value in assay [3] was 14%.

Take “HSQGTFTSDYAKYLDARRAKEFIAWLVKGRC(22kD) (HSQGTFTSDYAKYLDARRAKEFIAWLVKGRC(PEG 22kD); listed as Homo sapiens) [G277, 22kD PEG linked to the cysteine residue]”: in the assay with GLP-1 receptor [1], the “GLP1 Relative Potency” value is 1.8% and the “% GLP1 max” value was found to be 93.7%. Moreover, the “In vivo Decrease IpGTT AUC” value in assay [3] is reported as 46%.

As for “HSQGTFTSDYARYLDARRAREFIKWLVRGRC(22kD) (HSQGTFTSDYARYLDARRAREFIKWLVRGRC(PEG 22kD); listed as Homo sapiens) [G2185, 22kD PEG linked to the cysteine residue]”, in the assay with GLP-1 receptor [1], the “GLP1 Relative Potency” value is 6.2% and the “% GLP1 max” value is given as 112.7%. Further, the “In vivo Decrease IpGTT AUC” value in assay [3] was determined as 44%.

The values above are taken from US7488716B2 (priority 2001, dated 2009).
